# Measured values as given in patent publication US20080199855A1, “Identification And Characterization Of A Subset of Glioblastomas Sensitive To Treatment With Imatinib” (priority 2004, published 2008).
# How the values were obtained:
# GBM culture 30 = assay: cells; conditions: Homo sapiens, 96 h, read-out: growth inhibition (% reduction of increase in cell number)
# GBM culture 21 = assay: cells; conditions: Homo sapiens, 96 h, read-out: growth inhibition (% reduction of increase in cell number)
# ERK = assay: Compound I-induced change in ERK phosphorylation in GBM cultures (immunoblotting); format: cell-based, human; conditions: 10 GBM cultures; 1 μM compound I for 1 h; 10% FCS
# Experimental: (§1) Glioblastoma cell cultures were confluently plated in 12-well plate wells (Falcon). […] Samples, with normalized protein content, were subjected to SDS-PAGE using 12% gels. Control lysates from un-stimulated and PDGF-BB-stimulated PAE/Rβ cells were loaded on each gel. Samples were electrophoretically transferred to Hydrobond-C-Extra filters (Amersham Life Science). For detection of phosphorylated forms of ERK and Akt, filters were blocked for 1 h in Tris buffered saline pH 7.6 (TBS), 0.137 M NaCl and 0.0035 M Tris-HCl, containing 5% BSA, and incubated over night with 1 μg/ml anti phospho-p44/42 MAPK Thr202/Tyr204 (Cell Signaling Technology) or 1 μg/ml anti phospho-Akt Ser473 (Cell Signaling Technology) in TBS with 0.001% Tween-20 (TTBS). After three 10 min washes in TTBS, the filters were incubated for 1 h with horseradish peroxidase coupled sheep anti-rabbit antibody (Amersham Life Science) diluted 1:25000, and washed three times 10 min in TTBS. The antigens were detected using the Lumi-Light plus western blotting substrate (Roche) according to the manufacturer's instruction with an Intelligent Darkbox II digital scanner (FUJIFILM). […] Values were quantified by using the AIDA software version 3.10.039 (FUJIFILM). The relative expression and phosphorylation of ERK and Akt in the different GBM cultures, was determined by using the reference samples from the PAE/Rβ cells.
# GBM culture 35 = assay: cells; conditions: Homo sapiens, 96 h, read-out: growth inhibition (% reduction of increase in cell number)
# GBM culture 38 = assay: cells; conditions: Homo sapiens, 96 h, read-out: growth inhibition (% reduction of increase in cell number)
# GBM culture 18 = assay: cells; conditions: Homo sapiens, 96 h, read-out: growth inhibition (% reduction of increase in cell number)
# GBM culture 13 = assay: Growth inhibition induced by compound I, GBM culture 13; conditions: Homo sapiens, 96 h, read-out: growth inhibition (% reduction of increase in cell number)
# GBM culture 27 = assay: cells; conditions: Homo sapiens, 96 h, read-out: growth inhibition (% reduction of increase in cell number)
# Akt = assay: Compound I-induced change in Akt phosphorylation in GBM cultures (immunoblotting); format: cell-based, human; conditions: 10 GBM cultures; 1 μM compound I for 1 h; 10% FCS
# Experimental: as §1
# GBM culture 31 = assay: cells; conditions: Homo sapiens, 96 h, read-out: growth inhibition (% reduction of increase in cell number)
# GBM culture 45 = assay: cells; conditions: Homo sapiens, 96 h, read-out: growth inhibition (% reduction of increase in cell number)
# GBM culture 8 = assay: cells; conditions: Homo sapiens, 96 h, read-out: growth inhibition (% reduction of increase in cell number)
# GBM culture 9 = assay: cells; conditions: Homo sapiens, 96 h, read-out: growth inhibition (% reduction of increase in cell number)
# GBM culture 6 = assay: cells; conditions: Homo sapiens, 96 h, read-out: growth inhibition (% reduction of increase in cell number)
# GBM culture 5 = assay: cells; conditions: Homo sapiens, 96 h, read-out: growth inhibition (% reduction of increase in cell number)
# GBM culture 34 = assay: cells; conditions: Homo sapiens, 96 h, read-out: growth inhibition (% reduction of increase in cell number)
# GBM culture 11 = assay: cells; conditions: Homo sapiens, 96 h, read-out: growth inhibition (% reduction of increase in cell number)
# GBM culture 7 = assay: cells; conditions: Homo sapiens, 96 h, read-out: growth inhibition (% reduction of increase in cell number)
smiles,measurement,setting,value
Cc1ccc(NC(=O)c2ccc(CN3CCN(C)CC3)cc2)cc1Nc1nccc(-c2cccnc2)n1 [compound I],inhibition at 1 µM,GBM culture 30,< 15%
same,inhibition at 1 µM,GBM culture 21,< 15%
same,compound I-induced change in specific phosphorylation of ERK,ERK,only moderate changes
same,inhibition at 1 µM,GBM culture 35,< 15%
same,inhibition at 1 µM,GBM culture 38,< 15%
same,inhibition at 1 µM,GBM culture 18,< 15%
same,inhibition at 1 µM,GBM culture 13,20 to 40%
same,inhibition at 1 µM,GBM culture 27,20 to 40%
same,compound I-induced change in specific phosphorylation of Akt,Akt,only moderate changes
same,inhibition at 1 µM,GBM culture 31,> 40%
same,inhibition at 1 µM,GBM culture 45,> 40%
same,inhibition at 1 µM,GBM culture 8,20 to 40%
same,inhibition at 1 µM,GBM culture 9,> 40%
same,inhibition at 1 µM,GBM culture 6,> 40%
same,inhibition at 1 µM,GBM culture 5,< 15%
same,inhibition at 1 µM,GBM culture 34,< 15%
same,inhibition at 1 µM,GBM culture 11,> 40%
same,inhibition at 1 µM,GBM culture 7,> 40%
